Measured values as given in publication PMC9312113, “Bioactive Components from Ampelopsis japonica with Antioxidant, Anti-α-Glucosidase, and Antiacetylcholinesterase Activities” (Antioxidants, 2022).
Where two headings read alike, the source gives them in different places.

Key:
[1] = DPPH radical scavenging activity; conditions: n = 3
Protocol: This assay was determined using the procedure previously reported.

[2] = ABTS radical scavenging assay; conditions: n = 3
Protocol: This assay was assessed using the procedure previously described.

[3] = Ferric reducing antioxidant power (FRAP) assay
Protocol: The FRAP assay was measured using the procedure previously described.

[4] = molecular target: acetylcholinesterase (AChE) (Electrophorus electricus, UniProt O42275); test: biochemical
[5] = Superoxide radical scavenging assay; conditions: isolated compounds (Table 5); n = 3
Protocol: This assay was determined by the method previously described.

[6] = solvent extracts (Table 2), concentration causing 50% free radical scavenging
[7] = isolated compounds (Table 5), Trolox equivalents
[8] = isolated components (Table 6), read-out: IC50 AChE (converted)

Chain of acetylcholinesterase (AChE) (O42275 24-633): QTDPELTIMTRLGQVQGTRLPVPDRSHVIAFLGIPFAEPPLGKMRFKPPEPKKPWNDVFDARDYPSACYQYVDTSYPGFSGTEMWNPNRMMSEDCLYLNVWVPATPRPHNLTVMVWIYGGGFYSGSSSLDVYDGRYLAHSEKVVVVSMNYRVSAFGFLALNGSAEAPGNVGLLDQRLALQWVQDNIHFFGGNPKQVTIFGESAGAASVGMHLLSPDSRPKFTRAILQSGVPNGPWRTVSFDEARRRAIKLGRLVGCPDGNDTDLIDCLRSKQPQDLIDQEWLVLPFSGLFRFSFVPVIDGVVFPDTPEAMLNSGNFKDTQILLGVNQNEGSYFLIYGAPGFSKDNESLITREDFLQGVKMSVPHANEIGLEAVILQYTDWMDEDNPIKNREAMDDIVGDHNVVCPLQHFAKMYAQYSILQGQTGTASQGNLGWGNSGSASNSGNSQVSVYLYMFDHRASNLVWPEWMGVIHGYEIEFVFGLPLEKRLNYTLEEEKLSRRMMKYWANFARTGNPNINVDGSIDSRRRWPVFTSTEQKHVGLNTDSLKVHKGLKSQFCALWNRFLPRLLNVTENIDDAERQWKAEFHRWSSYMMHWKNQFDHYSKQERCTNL

| SMILES | SC50 DPPH ([1]; isolated compounds (Table 5)) | SC50 DPPH [1, 6] | SC50 ABTS ([2]; isolated compounds (Table 5)) | SC50 ABTS [2, 6] | FRAP, TE [3, 7] | FRAP, TE ([3]; solvent extracts (Table 2), millimolar of Trolox equivalents per gram of extract) | IC50 [4, 8] | IC50 ([4]; solvent extracts (Table 3), read-out: IC50 AChE (converted)) | SC50 Superoxide [5] | IC50 [4] |
| --- | --- | --- | --- | --- | --- | --- | --- | --- | --- | --- |
| Cc1cc(C(C)(C)C)c(O)c(C(C)(C)C)c1 [BHT, butylated hydroxytoluene, reference compound] | 36.99 ± 4.54 µg/mL | 33.04 ± 2.12 µg/mL | 17.36 ± 3.14 µg/mL | 14.09 ± 0.24 µg/mL | 3997.23 ± 144.35 mM/g | 4257.97 ± 145.90 mM/g | – | – | – | – |
| O=C(/C=C/c1ccc(O)c(O)c1)O[C@@H]1C[C@](O)(C(=O)O)C[C@@H](O)[C@H]1O [Chlorogenic acid, chlorogenic acid, reference compound] | – | – | – | – | – | – | 182 µM | 188 µM | – | – |
| Oc1cc(O)c2c(c1)O[C@H](c1ccc(O)c(O)c1)[C@@H](O)C2 [Compound 1, catechin] | 10.08 ± 3.09 µg/mL | – | 2.23 ± 0.22 µg/mL | – | 8729.33 ± 424.55 mM/g | – | 90.8 µM | – | 64.43 ± 7.73 µg/mL | – |
| O=C(O)c1cc(O)c(O)c(O)c1 [Compound 2, gallic acid] | 2.60 ± 0.67 µg/mL | – | 1.45 ± 0.14 µg/mL | – | 28,512.82 ± 43.27 mM/g | – | – | – | 47.40 ± 3.01 µg/mL | 244 µM |
| O=c1c(O)c(-c2ccc(O)cc2)oc2cc(O)cc(O)c12 [Compound 3, kaempferol] | 12.48 ± 3.01 µg/mL | – | 5.24 ± 0.45 µg/mL | – | 7912.47 ± 220.08 mM/g | – | – | – | – | – |
| O=c1c(O)c(-c2ccc(O)c(O)c2)oc2cc(O)cc(O)c12 [Compound 4, quercetin] | 3.36 ± 0.58 µg/mL | – | 3.15 ± 0.49 µg/mL | – | 16,038.26 ± 86.89 mM/g | – | – | – | 31.89 ± 2.03 µg/mL | – |
| C[C@@H]1CC[C@]2(C(=O)O)CC[C@]3(C)C(=CC[C@@H]4[C@@]5(C)C[C@@H](O)[C@@H](O)C(C)(C)[C@@H]5CC[C@]43C)[C@@H]2[C@]1(C)O [Compound 5, euscaphic acid] | >400 µg/mL | – | >400 µg/mL | – | 8.67 ± 3.93 mM/g | – | 23.8 µM | – | >400 µg/mL | – |
| Oc1ccc(/C=C/c2cc(O)cc(O)c2)cc1 [Compound 6, resveratrol] | – | – | – | – | – | – | – | – | – | 354 µM |
| Oc1cc(O)c2c(c1)O[C@H](c1ccc(O)c(O)c1)[C@H](O)C2 [Compound 7, epicatechin] | 2.78 ± 0.25 µg/mL | – | 3.78 ± 0.03 µg/mL | – | 13,122.77 ± 182.42 mM/g | – | 184 µM | – | 41.76 ± 4.20 µg/mL | – |
